Reference: BindingDB's records for doi:10.1016/S0960-894X(00)80623-X (1992)

Target: HMG-CoA reductase (Bos taurus)
Assay: Compound was evaluated for inhibitory activity against HMG-CoA reductase in bovine ocular cell preparation

IC50: 3000 nM
SMILES: Cn1nnnc1C(/C=C/[C@@H](O)C[C@@H](O)CC(=O)O)=C(c1ccc(F)cc1)c1ccc(F)cc1
